The nature of data set [1]: Solubility determination in water (Chinese Pharmacopoeia 2020 solubility test method). It is filed as physicochemical. Particulars: 25° C.±2° C., dissolution observed within 30 minutes. The procedure:
The determination is based on the solubility test method in General Example 15 of Part IV in “Chinese Pharmacopoeia (2020 Edition)”: the test product was ground into fine powders, and water at about 25° C. is added in a certain water bath at 25° C.±2° C., and shaken vigorously for 30 seconds every 5 minutes, to observe the dissolution within 30 minutes. If there are no visible solute particles, it is regarded as complete dissolution.

Data set [2] in a line: Pharmacokinetic study: metabolism of prodrug and conversion to levosimendan in plasma after in vivo administration. Particulars: for ranking of metabolic conversion rates among the 13 prodrug molecules: in plasma within 10 minutes. As to the method:
FIGS. 4-6 are the change profile of the content of compound TCX1001-031 itself in plasma after administration in the pharmacokinetic study, the change profile of the content of released levosimendan, and the pharmacokinetic metabolic conversion rate, respectively.
The conversion rates of these compounds to levosimendan in plasma within 10 minutes are approximately 30-45%.

For data set [3] the following is noted: general statement, no test described; cited from earlier work.

Some results are limits rather than exact numbers.

In the case of `C[C@@H]1CC(=O)N(COC(=O)CN2CCCC2)N=C1c1ccc(NN=C(C#N)C#N)cc1` [TCX-1001-039], the solubility in water result in data set [1] is “[drawing 11] Rp = pyrrolidin-1-ylmethyl Chemical name: (R)-(3-((4-(2- (dicyanomethylene)hydrazino)phenyl)- 4-methyl-6-oxo-5,6-dihydropyridazin- 1(4H)-yl)methyl 2-pyrrolidin-1-yl- acetate (TCX-1001-03 9) This product is slightly soluble in water”.
For `C[C@@H]1CC(=O)N(COC(=O)c2ccc(CN3CCOCC3)cc2)N=C1c1ccc(NN=C(C#N)C#N)cc1` [TCX-1001-031], the solubility in water result in data set [1] is “[drawing 4] Rp = 4-(morpholin-1-ylmethyl)phenyl Chemical name: (R)-(3-((4-(2- (dicyanomethylene)hydrazino)phenyl)- 4-methyl-6-oxo-5,6-dihydropyridazin- 1(4H)-yl)methyl 4-(morpholin-1-ylmethyl)benzoate (TCX-1001-031) This product is sparingly soluble in water”. In addition, the “ranking of metabolic conversion rates among the 13 prodrug molecules” value (“ranking” for short) in data set [2] is on record as “highest”. The “time to complete metabolism of the prodrug (content drops to 0)” value in data set [2] (plasma, after in vivo administration) was at most 1 min.
Consider `C[C@@H]1CC(=O)N(COC(=O)CC(=O)O)N=C1c1ccc(NN=C(C#N)C#N)cc1` [TCX-1001-041, (R)-(3-((4-(2-(dicyanomethylene)hydrazino)phenyl)-4-methyl-6-oxo-5,6-dihydropyridazin-1(4H)-yl)methyl 2-carboxyl acetate], for which the solubility in water entry in data set [1] is “[drawing 12] Rp = carboxylmethyl Chemical name: (R)-(3-((4-(2- (dicyanomethylene)hydrazino)phenyl)- 4-methyl-6-oxo-5,6-dihydropyridazin- 1(4H)-yl)methyl 2-carboxylacetate (TCX-1001-041) This product is slightly soluble in water”.
Take `C[C@@H]1CC(=O)N(COC(=O)CC(=O)NCc2ccncc2)N=C1c1ccc(NN=C(C#N)C#N)cc1` [TCX-1001-036]: the solubility in water result in data set [1] was “[drawing 10] Rp = pyridin-4-ylmethylaminoformylmethyl Chemical name: (R)-(3-((4-(2- (dicyanomethylene)hydrazino)phenyl)- 4-methyl-6-oxo-5,6-dihydropyridazin- 1(4H)-yl)methyl 3-oxo-3-((pyridin-4-ylmethyl)amino)propionate (TCX-1001-036) This product is extremely slightly soluble in water”.
For `C[C@@H]1CC(=O)N(COC(=O)c2cccnc2)N=C1c1ccc(NN=C(C#N)C#N)cc1` [TCX-1001-029, (R)-(3-((4-(2-(dicyanomethylene)hydrazino)phenyl)-4-methyl-6-oxo-5,6-dihydropyridazin-1(4H)-yl)methyl nicotinate], the solubility in water result in data set [1] was “[drawing 7] Rp = pyridin-3-yl Chemical name: (R)-(3-((4-(2- (dicyanomethylene)hydrazino)phenyl)- 4-methyl-6-oxo-5,6-dihydropyridazin- 1(4H)-yl)methyl nicotinate (TCX-1001-029) This product is extremely slightly soluble in water”. Also, the “ranking” value in data set [2] is given as “highest”.
Turning to `C[C@@H]1CC(=O)NN=C1c1ccc(NN=C(C#N)C#N)cc1` [Levosimendan, (R)-[[4-(1,4,5,6-tetrahydro-4-methyl-6-oxo-pyridazin-3-yl)phenyl]-hydrazono]-malononitrile], in data set [3], the “solubility of levosimendan in most organic solvents” value is recorded as “insoluble or extremely poorly soluble” and the “solubility of levosimendan in water” value was “insoluble”.
For the compound `C[C@@H]1CC(=O)N(COC(=O)CN(C)C)N=C1c1ccc(NN=C(C#N)C#N)cc1` [TCX-1001-030], the solubility in water result in data set [1] was “[drawing 6] Rp = N,N-dimethylaminomethyl Chemical name: (R)-(3-((4-(2- (dicyanomethylene)hydrazino)phenyl)- 4-methyl-6-oxo-5,6-dihydropyridazin- 1(4H)-yl)m ethyl N,N- dimethylglycinate (TCX-1001-030) This product is slightly soluble in water”. The “ranking” value in data set [2] was “highest”.
As to `C[C@@H]1CC(=O)N(COC(=O)COS(=O)(=O)O)N=C1c1ccc(NN=C(C#N)C#N)cc1` [TCX-1001-038, (R)-(3-((4-(2-(dicyanomethylene)hydrazino)phenyl)-4-methyl-6-oxo-5,6-dihydropyridazin-1(4H)-yl)methyl sulfonyloxyacetate], in data set [1], the solubility in water entry is “[drawing 16] Rp = sulfonyloxymethyl Chemical name: (R)-(3-((4-(2- (dicyanomethylene)hydrazino)phenyl)- 4-methyl-6-oxo-5,6-dihydropyridazin- 1(4H)-yl)methyl sulfonyloxyacetate (TCX-1001-038) This product is extremely soluble in water”.
The same measure, in the same setting: in the case of `C[C@@H]1CC(=O)N(COC(=O)CCC(=O)O)N=C1c1ccc(NN=C(C#N)C#N)cc1` [TCX-1001-034] it was “[drawing 13] Rp = carboxyl ethyl Chemical name: (R)-(3-((4-(2- (dicyanomethylene)hydrazino)phenyl)- 4-methyl-6-oxo-5,6-dihydropyridazin- 1(4H)-yl)methyl 3-carboxylpropionate (TCX-1001-034) This product is slightly soluble in water”; in that of `C[C@@H]1CC(=O)N(COC(=O)CN)N=C1c1ccc(NN=C(C#N)C#N)cc1` [TCX-1001-032, (R)-(3-((4-(2-(dicyanomethylene)hydrazino)phenyl)-4-methyl-6-oxo-5,6-dihydropyridazin-1(4H)-yl)methyl glycinate], “[drawing 9] Rp = aminomethyl Chemical name: (R)-(3-((4-(2- (dicyanomethylene)hydrazino)phenyl)- 4-methyl-6-oxo-5,6-dihydropyridazin- 1(4H)-yl)m ethyl glycinate (TCX-1001-032) This product is slightly soluble in water”; in that of `C[C@@H]1CC(=O)N(COC(=O)OCC(=O)O)N=C1c1ccc(NN=C(C#N)C#N)cc1` [TCX-1001-035, (R)-(3-((4-(2-(dicyanomethylene)hydrazino)phenyl)-4-methyl-6-oxo-5,6-dihydropyridazin-1(4H)-yl)methyl carboxylmethyloxyformate], “[drawing 14] Rp = carboxylmethoxy Chemical name: (R)-(3-((4-(2- (dicyanomethylene)hydrazino)phenyl)- 4-methyl-6-oxo-5,6-dihydropyridazin- 1(4H)-yl)methyl carboxylmethyloxyformate (TCX-1001-035) This product is slightly soluble in water”.
On the same count and under the same terms, in the case of `C[C@@H]1CC(=O)N(COC(=O)N2CCC(N3CCCCC3)CC2)N=C1c1ccc(NN=C(C#N)C#N)cc1` [TCX-1001-037] it was “[drawing 8] Rp = 4-(piperidin-1-yl)-piperidin-1-yl Chemical name: (R)-(3-((4-(2- (dicyanomethylene)hydrazino)phenyl)- 4-methyl-6-oxo-5,6-dihydropyridazin- 1(4H)-yl)methyl 4-(piperidin-1-yl)piperidin-1-ylformate (TCX-1001-037) This product is sparingly soluble in water”.
On the same count and under the same terms, next, `C[C@@H]1CC(=O)N(COC(=O)COP(=O)(O)O)N=C1c1ccc(NN=C(C#N)C#N)cc1` [TCX-1001-040, (R)-(3-((4-(2-(dicyanomethylene)hydrazino)phenyl)-4-methyl-6-oxo-5,6-dihydropyridazin-1(4H)-yl)methyl phosphoryloxyacetate]: “[drawing 15] Rp = phosphoryloxymethyl Chemical name: (R)-(3-((4-(2- (dicyanomethylene)hydrazino)phenyl)- 4-methyl-6-oxo-5,6-dihydropyridazin- 1(4H)-yl)methyl phosphoryloxyacetate (TCX-1001-040) This product is extremely soluble in water”.
`C[C@@H]1CC(=O)N(COC(=O)c2ccc(CN3CCN(C)CC3)cc2)N=C1c1ccc(NN=C(C#N)C#N)cc1` [TCX-1001-033]: the solubility in water entry in data set [1] was “[drawing 5] Rp = 4-(4-methylpiperazin-1-ylmethyl)phenyl Chemical name: (R)-(3-((4-(2- (dicyanomethylene)hydrazino)phenyl)- 4-methyl-6-oxo-5,6-dihydropyridazin- 1(4H)-yl)methyl 4-((4- methylpiperazin-1-yl)methyl)benzoate (TCX-1001-033) This product is sparingly soluble in water”. In addition, the “ranking” value in data set [2] was “highest”.
